The values below come from patent US20250177363A1, “SUBSTITUTED IMIDAZOPYRIDINYL COMPOUNDS USEFUL AS INHIBITORS OF TLR9” (Bristol-Myers Squibb Company, priority 2022, published 2025).

Molecules are shown by their SMILES.

Holding throughout (format): cell-based
For one assay, the target named is T1, human TLR7 (Homo sapiens, UniProt Q9NYK1).
T1 construct: host or cells: HEK-Blue cells
T1 sequence (Q9NYK1 27-1049): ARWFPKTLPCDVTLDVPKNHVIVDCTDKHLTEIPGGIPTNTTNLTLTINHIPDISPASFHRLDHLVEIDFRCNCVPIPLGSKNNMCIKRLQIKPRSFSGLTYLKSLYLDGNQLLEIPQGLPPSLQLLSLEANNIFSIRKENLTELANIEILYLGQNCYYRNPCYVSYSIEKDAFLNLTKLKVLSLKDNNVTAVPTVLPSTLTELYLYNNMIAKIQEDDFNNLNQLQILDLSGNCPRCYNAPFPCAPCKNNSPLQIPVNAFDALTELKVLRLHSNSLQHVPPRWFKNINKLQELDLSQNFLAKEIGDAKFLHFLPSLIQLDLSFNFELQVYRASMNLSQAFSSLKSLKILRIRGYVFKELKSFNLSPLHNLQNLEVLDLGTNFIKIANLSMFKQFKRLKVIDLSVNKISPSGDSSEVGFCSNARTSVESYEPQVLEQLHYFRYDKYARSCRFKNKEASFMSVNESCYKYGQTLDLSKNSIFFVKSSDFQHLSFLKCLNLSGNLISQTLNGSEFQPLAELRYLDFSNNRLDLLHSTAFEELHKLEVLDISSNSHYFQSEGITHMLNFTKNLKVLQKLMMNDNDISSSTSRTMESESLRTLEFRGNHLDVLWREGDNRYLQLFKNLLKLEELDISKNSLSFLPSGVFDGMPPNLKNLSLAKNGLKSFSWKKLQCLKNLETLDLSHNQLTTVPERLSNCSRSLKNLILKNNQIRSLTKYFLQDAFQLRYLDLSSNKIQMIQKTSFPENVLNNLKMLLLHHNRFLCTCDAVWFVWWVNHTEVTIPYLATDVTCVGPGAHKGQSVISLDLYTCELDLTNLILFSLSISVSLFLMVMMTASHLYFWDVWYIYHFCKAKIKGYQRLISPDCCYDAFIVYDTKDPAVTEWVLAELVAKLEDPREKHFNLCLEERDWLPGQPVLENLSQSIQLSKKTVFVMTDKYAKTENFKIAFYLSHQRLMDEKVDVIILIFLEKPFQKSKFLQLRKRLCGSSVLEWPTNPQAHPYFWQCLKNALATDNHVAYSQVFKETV
In words: TLR7 inhibition reporter assay (HEK-Blue, SEAP). The conditions noted are these: HEK-Blue cells overexpressing human TLR7, ligand gardiquimod 2.5 μM, 22 hour incubation. The protocol:
(§1) TLR7/8/9 Inhibition Reporter Assays
(§2) HEK-Blue™-cells (Invivogen) overexpressing human TLR7. TLR8 or TLR9 receptors were used for screening inhibitors of these receptors using an inducible SEAP (secreted embryonic alkaline phosphatase) reporter gene under the control of the IFN-β minimal promoter fused to five NF-κB and AP-1-binding sites. Cells are seeded into Greiner 384 well plates (15000 cells per well) that are pre dispensed (by ECHO) with testing compounds in DMSO to yield a final dose response concentration range of 0.85 nM-50 μM. After a 60 minute compound pre-treatment in 37 degree incubator, the cells are then stimulated with a TLR7 ligand (gardiquimod at a final concentration of 2.5 μM), TLR8 ligand (R848 at a final concentration of 14.25 μM) or TLR9 ligand (ODN2006 at a final concentration of 200 nM) to activate NF-κB and AP-1 which induce the production of SEAP. After a 22 hour incubation at 37° C., 5% CO2, SEAP levels are determined with the addition of HEK-Blue™ Detection reagent (Invivogen), a cell culture medium that allows for detection of SEAP, according to manufacturer's specifications. The percent inhibition is determined as the % reduction in the HEK-Blue signal present in […].
For orientation: Reporter assays use an easily measured gene product as a stand-in for the process of interest.

For a further assay, the target named is T2, human TLR8 (Homo sapiens, UniProt Q9NR97).
T2 construct: host or cells: HEK-Blue cells
T2 sequence (Q9NR97 27-1041): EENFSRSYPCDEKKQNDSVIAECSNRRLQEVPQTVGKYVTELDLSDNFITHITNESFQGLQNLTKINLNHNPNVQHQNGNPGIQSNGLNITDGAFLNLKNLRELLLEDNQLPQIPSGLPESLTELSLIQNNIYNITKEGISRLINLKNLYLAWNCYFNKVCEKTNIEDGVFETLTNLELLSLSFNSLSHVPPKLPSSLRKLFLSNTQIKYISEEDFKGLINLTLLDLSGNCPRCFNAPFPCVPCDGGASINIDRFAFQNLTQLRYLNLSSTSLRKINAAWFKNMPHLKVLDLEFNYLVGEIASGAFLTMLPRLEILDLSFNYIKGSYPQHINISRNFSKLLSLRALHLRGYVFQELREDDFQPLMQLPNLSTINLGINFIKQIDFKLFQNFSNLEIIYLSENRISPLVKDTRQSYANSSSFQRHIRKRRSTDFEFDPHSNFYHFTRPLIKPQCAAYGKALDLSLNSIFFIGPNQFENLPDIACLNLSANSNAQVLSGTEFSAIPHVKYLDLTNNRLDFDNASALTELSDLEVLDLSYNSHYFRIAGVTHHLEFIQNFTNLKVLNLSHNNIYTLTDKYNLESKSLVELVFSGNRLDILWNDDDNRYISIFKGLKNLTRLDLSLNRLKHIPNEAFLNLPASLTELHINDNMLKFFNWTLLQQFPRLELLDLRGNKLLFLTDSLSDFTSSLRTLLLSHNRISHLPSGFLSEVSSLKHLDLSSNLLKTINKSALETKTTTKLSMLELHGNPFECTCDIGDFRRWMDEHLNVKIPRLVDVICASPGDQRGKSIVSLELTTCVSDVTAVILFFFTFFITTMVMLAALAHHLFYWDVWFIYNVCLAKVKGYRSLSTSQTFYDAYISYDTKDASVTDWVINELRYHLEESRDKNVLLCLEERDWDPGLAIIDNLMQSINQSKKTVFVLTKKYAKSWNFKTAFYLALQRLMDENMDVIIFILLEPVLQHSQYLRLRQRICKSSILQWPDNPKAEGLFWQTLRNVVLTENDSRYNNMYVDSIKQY
In words: TLR8 inhibition reporter assay (HEK-Blue, SEAP). The following applies: HEK-Blue cells overexpressing human TLR8, ligand R848 14.25 μM, 22 hour incubation. The procedure: as §1, §2

For the next assay, the target named is T3, human TLR9 (Homo sapiens, UniProt Q9NR96).
T3 construct: host or cells: HEK-Blue cells
T3 sequence (Q9NR96 26-1032): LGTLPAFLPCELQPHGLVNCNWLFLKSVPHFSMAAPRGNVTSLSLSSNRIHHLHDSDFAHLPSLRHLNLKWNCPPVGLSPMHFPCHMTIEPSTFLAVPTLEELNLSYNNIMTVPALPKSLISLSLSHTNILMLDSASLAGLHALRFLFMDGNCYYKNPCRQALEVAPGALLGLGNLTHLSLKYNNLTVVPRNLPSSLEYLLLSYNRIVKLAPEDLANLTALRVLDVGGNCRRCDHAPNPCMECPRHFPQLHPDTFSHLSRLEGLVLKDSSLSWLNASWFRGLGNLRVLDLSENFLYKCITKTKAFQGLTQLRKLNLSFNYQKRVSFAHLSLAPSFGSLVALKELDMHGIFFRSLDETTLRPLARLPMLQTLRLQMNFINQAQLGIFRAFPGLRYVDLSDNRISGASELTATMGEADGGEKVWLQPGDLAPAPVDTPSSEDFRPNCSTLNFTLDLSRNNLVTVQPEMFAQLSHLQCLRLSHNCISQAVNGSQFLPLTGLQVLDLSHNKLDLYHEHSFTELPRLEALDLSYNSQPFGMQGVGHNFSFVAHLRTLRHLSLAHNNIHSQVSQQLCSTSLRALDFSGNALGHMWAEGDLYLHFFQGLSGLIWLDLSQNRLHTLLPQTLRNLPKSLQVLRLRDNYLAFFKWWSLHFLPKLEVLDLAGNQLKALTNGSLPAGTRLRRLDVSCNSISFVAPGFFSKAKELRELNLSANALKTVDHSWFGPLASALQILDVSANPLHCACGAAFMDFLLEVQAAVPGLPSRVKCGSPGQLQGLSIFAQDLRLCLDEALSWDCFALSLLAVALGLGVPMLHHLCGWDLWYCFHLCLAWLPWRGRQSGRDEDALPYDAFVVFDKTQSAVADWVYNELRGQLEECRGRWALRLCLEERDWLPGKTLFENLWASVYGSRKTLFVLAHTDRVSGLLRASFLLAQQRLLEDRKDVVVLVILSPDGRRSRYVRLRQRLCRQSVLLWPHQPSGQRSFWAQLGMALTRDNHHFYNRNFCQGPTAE
In words: TLR9 inhibition reporter assay (HEK-Blue, SEAP). The following applies: HEK-Blue cells overexpressing human TLR9, ligand ODN2006 200 nM, 22 hour incubation. The procedure:
as §1, §2

A word on the IC50: it is the point on the concentration scale where inhibition reaches its midpoint. Read a high IC50 as lower potency. `Cc1cc(C2CCN(C3CC4CCC(C3)N4CC(C)C)CC2)nc2c1nc(-c1ccc(S(C)(=O)=O)cc1)n2C` (single isomer, unassigned) [Example 28, 5-(1-(8-isobutyl-8-azabicyclo[3.2.1]octan-3-yl)piperidin-4-yl)-3,7-dimethyl-2-(4-(methylsulfonyl)phenyl)-3H-imidazo[4,5-b]pyridine]: the figures for the IC50 against human TLR7, against human TLR8 and on human TLR9 were 1.4 µM, greater than 50 µM and 0.079 µM, respectively.
In the case of `Cc1cc(C2CCN(C3CC4CCC(C3)N4CC3CC3)CC2)nc2c1nc(-c1ccc(S(C)(=O)=O)cc1)n2C` (single isomer, unassigned) [Example 30, 5-(1-(8-(cyclopropylmethyl)-8-azabicyclo[3.2.1]octan-3-yl)piperidin-4-yl)-3,7-dimethyl-2-(4-(methylsulfonyl)phenyl)-3H-imidazo[4,5-b]pyridine], the IC50 is 2.9 µM against human TLR7, greater than 50 µM on human TLR8 and 0.06 µM on human TLR9.
The like results for `Cc1cc(C2CCN(C3CC4CCC(C3)N4CC3CC3)CC2)nc2c1nc(-c1ccc(S(C)(=O)=O)cc1)n2C` (single isomer, unassigned) [Example 31, 5-(1-(8-(cyclopropylmethyl)-8-azabicyclo[3.2.1]octan-3-yl)piperidin-4-yl)-3,7-dimethyl-2-(4-(methylsulfonyl)phenyl)-3H-imidazo[4,5-b]pyridine] were, in that order, 7.2 µM, 19 µM and 0.24 µM.
The like results for `Cc1cc(C2CCN(C3CC4CCC(C3)N4C3CCOCC3)CC2)nc2c1nc(-c1ccc(S(C)(=O)=O)cc1)n2C` (single isomer, unassigned) [Example 34, 3,7-dimethyl-2-(4-(methylsulfonyl)phenyl)-5-(1-(8-(tetrahydro-2H-pyran-4-yl)-8-azabicyclo[3.2.1]octan-3-yl)piperidin-4-yl)-3H-imidazo[4,5-b]pyridine] were, in that order, 5.7 µM, greater than 50 µM and 0.037 µM.
The like results for `Cc1cc(C2CCN(C3CC4CCC(C3)N4C3CCOCC3)CC2)nc2c1nc(-c1ccc(S(C)(=O)=O)cc1)n2C` (single isomer, unassigned) [Example 35, 3,7-dimethyl-2-(4-(methylsulfonyl)phenyl)-5-(1-(8-(tetrahydro-2H-pyran-4-yl)-8-azabicyclo[3.2.1]octan-3-yl)piperidin-4-yl)-3H-imidazo[4,5-b]pyridine] were, in that order, 7.4 µM, greater than 50 µM and 0.34 µM.
As to `Cc1cc(-c2ccc(CN3CC4(C3)CN(C3CCC3)C4)cc2)nc2c1nc(-c1ccc(S(C)(=O)=O)cc1)n2C1CC1` [Example 1, 5-(4-((6-cyclobutyl-2,6-diazaspiro[3.3]heptan-2-yl)methyl)phenyl)-3-cyclopropyl-7-methyl-2-(4-(methylsulfonyl)phenyl)-3H-imidazo[4,5-b]pyridine], the values for the IC50 against human TLR7, on human TLR8 and at human TLR9 were 8.1 µM, 27 µM and 0.13 µM, respectively.
The matching figures for `Cc1cc(-c2ccc(CN3CCC(N4CCCC4)CC3)cc2)nc2c1nc(-c1ccc(S(C)(=O)=O)cc1)n2C1CC1` [Example 2, 3-cyclopropyl-7-methyl-2-(4-(methylsulfonyl)phenyl)-5-(4-((4-(pyrrolidin-1-yl)piperidin-1-yl)methyl)phenyl)-3H-imidazo[4,5-b]pyridine]: 7.2 µM, 31 µM and 0.1 µM.
The matching figures for `Cc1cc(-c2ccc(CN3CC4(C3)CN(C(C)C)C4)cc2)nc2c1nc(-c1ccc(S(C)(=O)=O)cc1)n2C1CC1` [Example 3, 3-cyclopropyl-5-(4-((6-isopropyl-2,6-diazaspiro[3.3]heptan-2-yl)methyl)phenyl)-7-methyl-2-(4-(methylsulfonyl)phenyl)-3H-imidazo[4,5-b]pyridine]: 0.71 µM, greater than 50 µM and 0.19 µM.
The like results for `Cc1cc(-c2ccc(CN3CC4(C3)CN(C3CCOCC3)C4)cc2)nc2c1nc(-c1ccc(S(C)(=O)=O)cc1)n2C1CC1` [Example 5, 3-cyclopropyl-7-methyl-2-(4-(methylsulfonyl)phenyl)-5-(4-((6-(tetrahydro-2H-pyran-4-yl)-2,6-diazaspiro[3.3]heptan-2-yl)methyl)phenyl)-3H-imidazo[4,5-b]pyridine] were, in that order, 0.2 µM, 0.26 µM and 0.32 µM.
